Test system: HSV-2 (strain HG-52)
Assay: Inhibition of HSV-2 replication in BHK-21/C13 cell culture (viral titer by neutral red colorimetric assay)
Assay type: cell-based
Details: Human alphaherpesvirus 2, BHK21 (C13); agent alone; HSV-2 strain HG-52 in BHK-21/C13 cells, 29 h incubation; read-out: IC50 (concentration causing 50% inhibition of virus replication)
Procedure: BHK-21/C13 cells (ATCC CCL 10) are incubated for two days in 150 cm^2 T-flasks (1.5×10^6 cells/flask) with alpha-MEM medium (Gibco Canada Inc., Burlington, Ontario, Canada) supplemented with 8% (v/v) fetal bovine serum (FBS, Gibco Canada Inc.). The cells are trypsinized and then transferred to fresh media in a 24 well plate to give 2.5×10^5 cells in 750 μL of media per well. The cells are incubated at 37° C. for a period of 6 hours to allow them to adhere to the plate. Thereafter, the cells are washed once with 500 μL of alpha-MEM supplemented with 0.5% (v/v) FBS and then incubated with 750 μL of the same media (low serum) for 3 days. After this period of serum starvation, the low serum medium is removed and the cells are incubated in 500 μL of BBMT for 2 to 3 hours. [BBMT medium is described by P. Brazeau et al., Proc. Natl. Acad. Sci. USA, 79, 7909 (1982).] Thereafter, the cells are infected with HSV-2 (multiplicity of infection=0.02 PFU/cell) in 100 μL of BBMT medium. […]
On completion of the above 2 hour incubation of the BHK-21/C13 cells, the media is replaced with alpha-MEM medium supplemented with 3% (v/v) FBS. The cells are now ready to be infected with the various sample dilutions of virus. […]

For Nc1nc2c(ncn2COCCO)c(=O)[nH]1 [acyclovir, 9-[(2-hydroxyethoxy)methyl]guanine], the IC50 was 4 µM.

Source: patent US5380727A, “Synergistic combination for treating herpes infections” (Bio-Mega, Inc., priority 1990, dated 1995)
